# Source: US9428460B2, “N-[4-(quinolin-4-yloxy)cyclohexyl(methyl)](hetero)arylcarboxamides as androgen receptor antagonists, production and use thereof as medicinal products” (BAYER PHARMA AKTIENGESELLSCHAFT, priority 2012, dated 2016)
# pIC50: −log10 of the molar value.
# Columns and labels:
# Format in all cases: cell-based
# [1] = target: androgen receptor mutant E709Y (Homo sapiens (Human), UniProt P10275, E710Y); test: Transactivation assay for the androgen receptor mutant E709Y (transfected PC-3 cells); settings: in the presence of 1×10^−10 M R1881, 24 hours
# Description: PC-3 cells (Kaighn et al., Invest. Urol. 17: 16-23, 1979) were plated out at a density of 10000 cells per well of a 96-well cell culture plate in RMPI 1640 medium (F1235, Biochrom AG Berlin, Germany) that contained activated charcoal-treated calf serum (FCS Serum Gold, PAA Laboratories) at a concentration of 5% (v/v). On the next day the cells were transiently transfected with the pSG5-vector (#216201 Stratagene), which contained the sequence of the androgen receptor mutant E709Y (Georget et al., Mol. Endocrinol. 20(4): 724-734, 2006), and with the MMTV-luciferase plasmid (see above, transactivation assay for the androgen receptor mutant W741C). The cells were treated with the test substances in concentrations from 1×10^−8 to 1×10^−10 M in the presence of 1×10^−10 M R1881 and were incubated overnight at 37° C. and 5% CO2. After 24 hours, 100 μl of Steady Glo Lysis and Detection reagent (E2550, Promega) was added per well and the luminescence was read in a Victor3 Luminometer (PerkinElmer) for 1 second per well. The luminescence values obtained were normalized, wherein 100% corresponded to the effect of the unstimulated control (without R1881), and 0% corresponded to the effect of the stimulated control (R1881 plus DMSO instead of test substance). The IC50 value was determined by regression analysis based on a four-parameter equation (minimum, maximum, IC50, Hill coefficient; Y=Max+(Min−Max)/(1+(X/IC50)^Hill)).
# LAPC-4 cells = test: Proliferation assay with LAPC-4 cells; settings: Homo sapiens, LAPC4, 168 h; in the presence of 1×10^−9 M R1881, seven days, AlamarBlue; read-out: IC50 LAPC-4 cell proliferation
# Description: LAPC-4 cells (Klein et al., Nat Med. 3(4): 402-8, 1997) were plated out at a density of 4000 cells per well of a 96-well cell culture plate in RMPI 1640 medium (F1275, Biochrom AG) that contained activated charcoal-treated calf serum (FCS Serum Gold, PAA Laboratories) at a concentration of 10% (v/v). On the next day the cells were treated with the test substances in concentrations from 1×10^−8 to 1×10^−10 M in the presence of 1×10^−9 M R1881. Cell proliferation was determined seven days later after incubation for 2 hours with AlamarBlue (DAL1100, Invitrogen) (Nakayama et al., J Immunol Methods, 204(2): 205-8, 1997). The fluorescence values obtained were normalized, wherein 100% corresponded to the effect of the unstimulated control (without R1881), and 0% corresponded to the effect of the stimulated control (R1881 plus DMSO instead of test substance). The IC50 value was determined by regression analysis based on a four-parameter equation (minimum, maximum, IC50, Hill coefficient; Y=Max+(Min−Max)/(1+(X/IC50)^Hill)).
# [2] = target: human androgen receptor (full length, wild-type form) (Homo sapiens (Human), UniProt P10275); test: Transactivation assay for the wild-type androgen receptor (PC-3 cells, MMTV-luciferase reporter); settings: in the presence of R1881, 16 hours
# Source text: For determining the androgen receptor-dependent transcription, a cellular assay system was used, consisting of PC-3 cells (Kaighn et al., Invest. Urol. 17: 16-23, 1979), which express the human androgen receptor stably and recombinantly (full length, wild-type form, see Swiss-Prot Acc. No. P10275, Entry Version 159, Sequence Version 2). In addition, these PC3 cells contain a stably integrated reporter gene plasmid, which is based on the commercially available plasmid pGL4.14 (#E6691, Promega Corporation, Madison, Wis., USA) and contains the luciferase gene from the American firefly (Photinus pyralis) under the control of the MMTV promoter (Cato et al., EMBO J. 6: 363-368, 1987). These cells were propagated in routine cell culture at 37° C. and 5% CO2 in a medium containing 90% RPMI 1640 (Invitrogen GmbH, Darmstadt, Germany), 100 U penicillin, 100 μg/ml streptomycin (Invitrogen), 4 mM L-glutamine (Invitrogen), 10% fetal calf serum (FCS Serum Gold, PAA Laboratories GmbH, Cölbe, Germany), 600 μg/ml Geneticin (G418-sulphate, Invitrogen) and 10 μg/ml puromycin (Sigma Aldrich GmbH, Germany).
# For carrying out the transactivation assays, approx. 1000 cells per well were plated out in a 384-well cell culture plate in a medium that contained activated charcoal-treated calf serum (FCS Serum Gold, PAA Laboratories) at a concentration of 5% (v/v). The test substances were added in a concentration series from 5.12×10^−12 to 1×10^−5 M in the presence of […] R1881 (methyltrienolone). The test plates were incubated overnight at 37° C. and 5% CO2. After 16 hours, 15 μl of Steady Glo Lysis and Detection reagent (E2550, Promega Corporation, Madison, Wis., USA) was added per well and the luminescence was read in a Topcount Luminometer (PerkinElmer, Waltham, Mass., USA) for 4 seconds per well. The luminescence values obtained were normalized, wherein 100% corresponded to the effect of the unstimulated control (without R1881), and 0% corresponded to the effect of the stimulated control (R1881 plus DMSO instead of test substance). The IC50 value was determined by regression analysis based on a four-parameter equation (minimum, maximum, IC50, Hill coefficient; Y=Max+(Min−Max)/(1+(X/IC50)^Hill)).
# LNCaP cells = test: Proliferation assay with LNCaP cells; settings: Homo sapiens, 168 h, in the presence of 1×10^−10 M R1881, seven days, AlamarBlue, read-out: IC50 LNCaP cell proliferation
# Description: LNCaP cells (Horoszewicz et al., in “Models for Prostate Cancer” (ed. G. P. Murphy), Alan R. Liss, New York 1981, p. 115-132; Horoszewicz et al., Cancer Res. 43: 1809-1818, 1983) were plated out at a density of 2000 cells per well of a 96-well cell culture plate in RMPI 1640 medium (F1275, Biochrom AG), which contained activated charcoal-treated calf serum (FCS Serum Gold, PAA Laboratories) at a concentration of 5% (v/v). Three days later the cells were treated with the test substances in concentrations from 1×10^−8 to 1×10^−10 M in the presence of 1×10^−10 M R1881. Cell proliferation was determined seven days later after incubation for 2 hours with AlamarBlue (DAL1100, Invitrogen) (Nakayama et al., J Immunol Methods, 204(2): 205-8, 1997). The fluorescence values obtained were normalized, wherein 100% corresponded to the effect of the unstimulated control (without R1881), and 0% corresponded to the effect of the stimulated control (R1881 plus DMSO instead of test substance). The IC50 value was determined by regression analysis based on a four-parameter equation (minimum, maximum, IC50, Hill coefficient; Y=Max+(Min−Max)/(1+(X/IC50)^Hill)).
# androgen receptor mutant E709Y, sequence (P10275 whole entry E710Y): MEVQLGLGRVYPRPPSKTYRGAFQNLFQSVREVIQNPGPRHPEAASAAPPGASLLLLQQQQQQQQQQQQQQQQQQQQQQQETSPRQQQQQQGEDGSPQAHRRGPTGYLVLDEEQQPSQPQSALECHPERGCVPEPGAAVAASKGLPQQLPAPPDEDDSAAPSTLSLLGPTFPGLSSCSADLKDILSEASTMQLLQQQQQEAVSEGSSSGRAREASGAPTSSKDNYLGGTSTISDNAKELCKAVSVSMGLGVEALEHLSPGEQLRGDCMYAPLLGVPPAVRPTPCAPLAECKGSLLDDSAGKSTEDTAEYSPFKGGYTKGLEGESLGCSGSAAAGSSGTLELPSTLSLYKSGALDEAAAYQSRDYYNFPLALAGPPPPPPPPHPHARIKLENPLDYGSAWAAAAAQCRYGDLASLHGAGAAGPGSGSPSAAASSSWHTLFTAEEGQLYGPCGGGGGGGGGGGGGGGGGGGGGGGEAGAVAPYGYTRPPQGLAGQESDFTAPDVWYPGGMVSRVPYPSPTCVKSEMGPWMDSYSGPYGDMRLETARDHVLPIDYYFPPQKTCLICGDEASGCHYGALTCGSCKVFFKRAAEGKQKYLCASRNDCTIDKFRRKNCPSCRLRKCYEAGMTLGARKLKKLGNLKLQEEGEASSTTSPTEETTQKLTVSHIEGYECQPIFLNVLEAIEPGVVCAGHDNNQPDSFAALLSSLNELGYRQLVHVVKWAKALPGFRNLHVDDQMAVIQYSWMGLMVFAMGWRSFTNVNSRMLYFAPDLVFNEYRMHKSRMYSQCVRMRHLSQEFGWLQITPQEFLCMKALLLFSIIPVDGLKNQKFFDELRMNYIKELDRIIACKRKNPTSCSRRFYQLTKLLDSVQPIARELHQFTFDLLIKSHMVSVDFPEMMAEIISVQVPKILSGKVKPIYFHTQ
# human androgen receptor (full length, wild-type form), sequence (P10275 whole entry): as the sequence (P10275 whole entry E710Y) above, with Y710E counted along it
compound,measurement,setting,value
"N#Cc1cccc2c(O[C@H]3CC[C@H](NC(=O)c4cccc(F)c4)CC3)ccnc12 [Example 23, N-{trans-4-[(8-cyanoquinolin-4-yl)oxy]cyclohexyl}-3-fluorobenzamide]",pIC50,[1],8.05
same,pIC50,LAPC-4 cells,7.07
same,pIC50,[2],7.28
same,pIC50,LNCaP cells,7.55
